As a reminder, the IC50 is the point on the concentration scale where inhibition reaches its midpoint. For orientation: EC50 means the concentration that produces a half-maximal response.

This is an account of results in US9586986B2, “Substituted 7-deazapurine ribonucleosides for therapeutic uses” (Institute of Organic Chemistry and Biochemistry ASCR, v.v.i., priority 2014, dated 2017).

Each structure is given as a SMILES string. Where only a bound is given, the exact number is not on record here.

Holding throughout (type): cell-based
One assay relates to CEM-DNR-bulk. Nature of the assay: Cytostatic/cytotoxic MTT assay, CEM-DNR-bulk. The note with it: Homo sapiens; daunorubicin resistant subline, 72 h; read-out: MTT, IC50 CEM-DNR-bulk. From the text: (§1) Unless otherwise stated, all cells were purchased from the […] (ATCC). The CCRF-CEM line is derived from T lymphoblastic leukemia, evincing high chemosenzitivity, K562 represent cells from a […] patient sample with bcr-abl translocation, HCT116 is colorectal tumor cell line and its p53 gene knock-down counterpart (HCT116p53−/−, Horizon Discovery, UK) is a model of human cancers with p53 inactivation frequently associated with poor prognosis, A549 cell line is lung adenocarcinoma. The daunorubicin resistant subline of CCRF-CEM cells (CEM-DNR bulk) and paclitaxel resistant subline K562-TAX were selected in our laboratory by cultivation of maternal cell lines in increasing concentrations of daunorubicine or paclitaxel, respectively. The CEM-DNR cells overexpress mrp-1 and mdr-1 genes, while K562-TAX cells overexpress mdr-1 only. Both proteins belong to the family of ABC transporters and are involved in the primary and/or acquired multidrug resistance phenomenon (ref.: Gottesman, M. M.; Fojo, T.; Bates, S. E. Multidrug resistance in cancer: role of ATP-dependent transporters. Nat. Rev. Cancer. 2002, 2, 48-58. (b) Noskova, V.; Dzubak, P.; Kuzmina, G.; Ludkova, A.; Stehlik, D.; Trojanec, R.; Janostakova, A.; Korinkova, G.; Mihal, V.; Hajduch, M. In vitro chemoresistance profile and expression/function of MDR associated proteins in resistant cell lines derived from CCRF-CEM, K562, A549 and MDA MB 231 parental cells. Neoplasma 2002, 49, 418-425). Non-malignant MRC-5 and BJ cells, derived from normal human fibroblasts, were used as controls. The cells were maintained in Nunc/Corning 80 cm^2 plastic tissue culture flasks and cultured in cell culture medium (DMEM/RPMI 1640 with 5 g/L glucose, 2 mM glutamine, 100 U/mL penicillin, 100 µg/mL streptomycin, 10% fetal calf serum, and NaHCO3). Cell suspensions were prepared and diluted according to the particular cell type and the expected target cell density (25,000-30,000 cells/well based on cell growth characteristics). Cells were added by pipette (80 L) into 96-well microtiter plates. Inoculates were allowed a pre-incubation period of 24 h at 37° C. and 5% CO2 for stabilization. Four-fold dilutions, in 20-L aliquots, of the intended test concentration were added to the microtiter plate walls at time zero. All test compound concentrations were examined in duplicate. Incubation of the cells with the test compounds lasted for 72 h at 37° C., in a 5% CO2 atmosphere at 100% humidity. At the end of the incubation period, the cells were assayed using MTT. Aliquots (10 L) of the MTT stock solution (5 mg/ml) were pipetted into each well and incubated for another 1-4 h. After this incubation period the formazan produced was dissolved by addition of 100 µL/well of 10% aq SDS (pH 5.5), followed by a further incubation at 37° C. overnight. The optical density was measured at 540 nm. The IC50 value, the drug concentration inhibiting the cell growth by 50%, was calculated from appropriate dose-response curves.
(§2) In vitro cytotoxic/cytostatic activity final nucleosides 1-5 was initially evaluated against […] cell lines derived from human solid tumors including lung (A549 cells) and colon (HCT116 and HCT116p53−/−) carcinomas, as well as leukemia cell lines (CCRF-CEM, CEM-DNR, K562 and K562-TAX) and, for comparison, non-malignant BJ and MRC-5 fibroblasts. Concentrations inhibiting the cell growth by 50% (IC50) were determined using a quantitative metabolic staining with 3-(4,5-dimethylthiazol-2-yl)-2,5-diphenyltetrazolium bromide (MTT) (ref.: Denizot, F.; Lang, R. Rapid colorimetric assay for cell growth and survival: Modifications to the tetrazolium dye procedure giving improved sensitivity and reliability. J. Immunol. Meth. 1986, 89, 271-277) following a 3-day treatment.
(§3) Multidrug resistance is a major therapeutic problem in cancer chemotherapy. […]
For orientation: Tetrazolium dyes change colour on reduction, which living cells bring about.

Another assay relates to A549. Nature of the assay: Cytostatic/cytotoxic MTT assay, A549. The note with it: Homo sapiens, A549; 72 h incubation; read-out: MTT, IC50 A549.
Description: as §1, §2

The next assay concerns HCT116. Nature of the assay: Cytostatic/cytotoxic MTT assay, HCT116. The note with it: Homo sapiens, HCT-116; 72 h incubation; read-out: MTT, IC50 HCT116.
Description: as §1, §2, §3

The next assay deals with MRC-5. Nature of the assay: Cytostatic/cytotoxic MTT assay, MRC-5 fibroblasts. The note with it: Homo sapiens, MRC5; non-malignant fibroblasts, 72 h; read-out: MTT, IC50 MRC-5.
Description: as §1, §2

A further assay has as its system HL60. Nature of the assay: XTT cytotoxicity assay, HL-60. The note with it: Homo sapiens, HL-60; 72 h incubation; read-out: XTT, IC50 HL60. The protocol: HL-60, Hela S3 and HepG2 cell lines (ATCC) were grown in RPMI-1640 or DMEM medium supplemented with 10% fetal calf serum, […] of streptomycin, 200 U/mL of penicillin G and 4 mM glutamine in a humidified atmosphere containing 5% CO2 at 37° C. Sensitivity of these cell lines to the synthesized compounds was assessed with the use of XTT cell proliferation kit II (Roche Diagnostics GmbH, Mannheim, Germany) according to the manufacturer's instructions. Briefly, cells were seeded in a 96-well plate at a density of 10,000 cells per well (90 μL). After 24 h, 10 μL of the tested compounds were added to the culture media at desired concentration range and incubated for 72 h. After that 50 μL of the XTT solution was added (1 mg/mL XTT+0.383 mg/mL N-methyl dibenzopyrazine methyl sulfate). The absorbance was recorded at 495 nm following a 2 h-incubation with the dye. IC50 values were determined by non-linear regression method using GraphPad Prism version 5.00 for Windows (GraphPad Software, La Jolla, Calif., USA).
In addition, the anti-proliferative effect was tested against a human T-lymphoblastic leukemia line CCRF-CEM, promyelocytic leukemia HL-60 and cervical carcinoma HeLa S3 growing in liquid suspension. Cell viability was determined following a 3-day incubation using 2,3-bis-(2-methoxy-4-nitro-5-sulfophenyl)-2H-tetrazolium-5-carboxanilide (XTT) assay (ref.: Scudiero, D. A.; Shoemaker, R. H.; Paull, K. D.; Monks, A.; Tierney, S.; Nofziger, T. H.; Currens, M. J.; Seniff, D.; Boyd M. R. Evaluation of a Soluble Tetrazolium/Formazan Assay for Cell Growth and Drug Sensitivity in Culture Using Human and Other Tumor Cell Lines. Cancer Res. 1988, 48, 4827-4833).

For assay [1], the system named is HCV subtype 1B replicon in Huh-7 cells. Nature of the assay: HCV sub-genomic reporter replicon assay, subtype 1B. The note with it: Hepatitis C virus; Huh-7 cells, HCV subtype 1B replicon; read-out: Replicon 1B EC50. The protocol:
Compounds were also tested in Huh-7 cells harboring sub-genomic reporter replicons derived from HCV subtypes 1B and 2A (ref.: Stuyver, L. J.; Whitaker, T.; McBrayer, T. R.; Hernandez-Santiago, B. I.; Lostia, S.; Tharnish, P. M.; Ramesh, M.; Chu, C. K.; Jordan, R.; Shi, J. X.; Rachakonda, S.; Watanabe, K. A.; Otto, M. J.; Schinazi, R. F. Antimicrob. Agents Chemother. 2003, 47, 244-254).

With `CSc1ncnc2c1c(-c1ccccc1)cn2[C@@H]1O[C@H](CO)[C@@H](O)[C@H]1O` [Compound 2e, 4-Methylsulfanyl-5-phenyl-7-(β-D-ribofuranosyl)-7H-pyrrolo[2,3-d]pyrimidine], the half-inhibitory concentration (IC50) was > 20 µM in the assay with CEM-DNR-bulk; > 20 µM with A549; > 20 µM in the assay with HCT116; > 100 µM in the assay on MRC-5; > 20 µM in the assay on HL60. The EC50 in assay [1] came out at 23.3 µM.
With `CSc1ncnc2c1c(-c1cc3ccccc3o1)cn2[C@@H]1O[C@H](CO)[C@@H](O)[C@H]1O` [Compound 2f, 5-(Benzofuran-2-yl)-4-methylsulfanyl-7-(β-D-ribofuranosyl)-7H-pyrrolo[2,3-d]pyrimidine], the IC50 in the assay with CEM-DNR-bulk is > 20 µM; with A549, > 20 µM; in the assay with HCT116, > 20 µM; with MRC-5, 70.8 µM; in the assay on HL60, 1.21 µM. Also, in assay [1], the EC50 came to 8.03 µM.
Consider `C#Cc1cn([C@@H]2O[C@H](CO)[C@@H](O)[C@H]2O)c2ncnc(SC)c12` [Compound 2g, 5-Ethynyl-4-methylsulfanyl-7-(β-D-ribofuranosyl)-7H-pyrrolo[2,3-d]pyrimidine], for which the 50% inhibitory concentration (IC50) in the assay with CEM-DNR-bulk was 0.11 µM; in the assay with A549, 0.14 µM; in the assay with HCT116 it was 0.03 µM; in the assay on MRC-5, > 100 µM; with HL60 it was 0.05 µM. For the same compound, in assay [1], the EC50 amounted to 0.21 µM.
In the case of `CSc1ncnc2c1c(I)cn2[C@@H]1O[C@H](CO)[C@@H](O)[C@H]1O` [Compound 2h, 5-Iodo-4-methylsulfanyl-7-(β-D-ribofuranosyl)-7H-pyrrolo[2,3-d]pyrimidine], the IC50 in the assay on CEM-DNR-bulk is > 20 µM; with A549, > 20 µM; with HCT116 it was > 20 µM; with MRC-5, > 100 µM; with HL60 it was 0.05 µM. Also, the 50% effective concentration (EC50) in assay [1] stood at 19.2 µM.
Take `CNc1ncnc2c1c(-c1ccco1)cn2[C@@H]1O[C@H](CO)[C@@H](O)[C@H]1O` [Compound 3a, 5-(Furan-2-yl)-4-methylamino-7-(β-D-ribofuranosyl)-7H-pyrrolo[2,3-d]pyrimidine]: the half-maximal inhibitory concentration (IC50) was > 20 µM in the assay on CEM-DNR-bulk; 2.57 µM in the assay with A549; 0.23 µM in the assay on HCT116; 90.8 µM with MRC-5; 0.62 µM with HL60. Also, in assay [1], the EC50 is 0.06 µM.
For `CNc1ncnc2c1c(-c1ccoc1)cn2[C@@H]1O[C@H](CO)[C@@H](O)[C@H]1O` [Compound 3b, 5-(Furan-3-yl)-4-methylamino-7-(β-D-ribofuranosyl)-7H-pyrrolo[2,3-d]pyrimidine], the IC50 with CEM-DNR-bulk was > 20 µM; in the assay with A549, > 20 µM; with HCT116, > 20 µM; with MRC-5, > 100 µM; in the assay with HL60, > 15 µM. Further, the EC50 in assay [1] worked out at 35.9 µM.
Turning to `CNc1ncnc2c1c(-c1cccs1)cn2[C@@H]1O[C@H](CO)[C@@H](O)[C@H]1O` [Compound 3c, 4-Methylamino-7-(β-D-ribofuranosyl)-5-(thiophen-2-yl)-7H-pyrrolo[2,3-d]pyrimidine], the IC50 with CEM-DNR-bulk was > 20 µM; with A549, > 20 µM; in the assay with HCT116, > 20 µM; with MRC-5, > 100 µM; in the assay on HL60, > 20 µM. Moreover, the EC50 in assay [1] is > 44 µM.
For `CNc1ncnc2c1c(-c1ccsc1)cn2[C@@H]1O[C@H](CO)[C@@H](O)[C@H]1O` [Compound 3d, 4-Methylamino-7-(β-D-ribofuranosyl)-5-(thiophen-3-yl)-7H-pyrrolo[2,3-d]pyrimidine], the IC50 in the assay with CEM-DNR-bulk is > 20 µM; with A549, > 20 µM; in the assay with HCT116, > 20 µM; with MRC-5, > 100 µM; with HL60, > 20 µM. Also, the EC50 in assay [1] was > 44 µM.
In the case of `CNc1ncnc2c1c(-c1ccccc1)cn2[C@@H]1O[C@H](CO)[C@@H](O)[C@H]1O` [Compound 3e, 4-Methylamino-5-phenyl-7-(β-D-ribofuranosyl)-7H-pyrrolo[2,3-d]pyrimidine], the IC50 was > 20 µM in the assay with CEM-DNR-bulk; > 20 µM in the assay on A549; > 20 µM with HCT116; > 100 µM in the assay on MRC-5; > 20 µM with HL60. Besides, the EC50 in assay [1] was > 44 µM.
In the case of `CNc1ncnc2c1c(-c1cc3ccccc3o1)cn2[C@@H]1O[C@H](CO)[C@@H](O)[C@H]1O` [Compound 3f, 5-(Benzofuran-2-yl)-4-methylamino-7-(β-D-ribofuranosyl)-7H-pyrrolo[2,3-d]pyrimidine], the IC50 with CEM-DNR-bulk was > 20 µM; in the assay with A549 it was > 20 µM; with HCT116 it was > 20 µM; in the assay on MRC-5, 75.3 µM; in the assay on HL60, 8.95 µM. Further, in assay [1], the EC50 worked out at 2.05 µM.
Regarding `C#Cc1cn([C@@H]2O[C@H](CO)[C@@H](O)[C@H]2O)c2ncnc(NC)c12` [Compound 3g, 5-Ethynyl-4-methylamino-7-(β-D-ribofuranosyl)-7H-pyrrolo[2,3-d]pyrimidine], the IC50 was 18.5 µM in the assay on CEM-DNR-bulk; > 20 µM with A549; > 20 µM in the assay on HCT116; > 100 µM with MRC-5; 9.06 µM in the assay with HL60. For the same compound, in assay [1], the EC50 worked out at 0.35 µM.
Regarding `CN(C)c1ncnc2c1c(-c1ccco1)cn2[C@@H]1O[C@H](CO)[C@@H](O)[C@H]1O` [Compound 4a, 4-Dimethylamino-5-(furan-2-yl)-7-(β-D-ribofuranosyl)-7H-pyrrolo[2,3-d]pyrimidine], the half-maximal inhibitory concentration (IC50) is 3.14 µM in the assay with CEM-DNR-bulk; 4.6 µM with A549; 0.25 µM in the assay with HCT116; > 100 µM in the assay with MRC-5; 0.22 µM in the assay with HL60. Further, in assay [1], the EC50 was determined as 1.49 µM.
